For 27 molecules, IC50 results are on record in patent publication US8771665B2 (Cocrystal Discovery, Inc., priority 2010, dated 2014).

This test has as its target T1, HCV1b NS5B polymerase delta 21 (Hepatitis C virus genotype 1b, UniProt P26663).
T1 construct: purified HCV1b NS5B polymerase delta 21
Briefly: RNA-Dependent RNA HCV NS5B (Polymerase) Assay and IC50 Determination. The test is classed as biochemical. Put shortly:
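Purified NS5B Δ21 (0.6 μg) with polyA:U16 template, 10 μM UTP plus α-32P UTP in Tris-HCl pH 7.5, 5 mM MgCl2, 0.5% Triton X-100, 60 min at 23°C with varied compound concentrations. Radiolabelled RNA captured on filters, quantified by phosphorimaging; IC50 from triplicate assays.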

T1 sequence (P26663 2420-2989): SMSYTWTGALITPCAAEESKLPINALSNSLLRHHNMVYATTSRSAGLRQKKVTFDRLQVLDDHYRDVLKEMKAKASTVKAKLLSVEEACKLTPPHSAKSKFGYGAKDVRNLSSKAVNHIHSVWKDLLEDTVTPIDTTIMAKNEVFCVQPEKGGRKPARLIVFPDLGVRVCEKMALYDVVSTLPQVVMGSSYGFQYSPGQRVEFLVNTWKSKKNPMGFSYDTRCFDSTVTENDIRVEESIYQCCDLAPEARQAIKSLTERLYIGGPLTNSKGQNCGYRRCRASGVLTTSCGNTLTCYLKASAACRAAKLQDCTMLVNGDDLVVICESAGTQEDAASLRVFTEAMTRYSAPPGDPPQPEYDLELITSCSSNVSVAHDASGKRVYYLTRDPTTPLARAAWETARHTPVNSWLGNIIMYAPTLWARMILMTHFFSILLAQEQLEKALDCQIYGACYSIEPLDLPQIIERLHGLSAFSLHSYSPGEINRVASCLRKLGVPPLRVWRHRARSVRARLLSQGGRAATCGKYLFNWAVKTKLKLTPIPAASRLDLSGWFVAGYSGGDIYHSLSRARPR

The molecule `CC1CCC(C2=C(c3cc(-c4ccccc4)sc3C(=O)O)CCN(Cc3ccnc4ccccc34)C2)CC1` (stereo not drawn) [Example 148, 3-[5-(4-Methyl-cyclohexyl)-1-quinolin-4-ylmethyl-1,2,3,6-tetrahydro-Pyridin-4-yl]-5-phenyl-thiophene-2-carboxylic acid] gave an IC50 of more than 10 µM.
The same measure for `CC1CCC(C2=C(c3cc(-c4ccccc4)sc3C(=O)O)CCN(Cc3ccc(Br)cn3)C2)CC1` (stereo not drawn) [Example 149, 3-[1-(5-Bromo-pyridin-2-ylmethyl)-5-(4-methyl-cyclohexyl)-1,2,3,6-tetrahydro-pyridin-4-yl]-5-phenyl-thiophene-2-carboxylic acid]: 3 to 10 µM; for `CCc1cc(CC)n2nc(CN3CCC(c4cc(-c5ccccc5)sc4C(=O)O)=C(C4CCC(C)CC4)C3)nc2n1` (stereo not drawn) [Example 150, 3-[1-(5,7-Diethyl-[1,2,4]triazolo[1,5-a]pyrimidin-2-ylmethyl)-5-(4-methyl-cyclohexyl)-1,2,3,6-tetrahydro-pyridin-4-yl]-5-phenyl-thiophene-2-carboxylic acid]: less than 3 µM.
Molecule `CC1CCC(C2=C(c3cc(-c4ccccc4)sc3C(=O)O)CCN(Cc3nc4nc(C(C)C)cc(C(C)C)n4n3)C2)CC1` (stereo not drawn) [Example 151, 3-[1-(5,7-Diisopropyl-[1,2,4]triazolo[1,5-a]pyrimidin-2-ylmethyl)-5-(4-methyl-cyclohexyl)-1,2,3,6-tetrahydro-pyridin-4-yl]-5-phenyl-thiophene-2-carboxylic acid] displayed an IC50 of 3 to 10 µM.
The same measure for `CC1CCC(C2=C(c3cc(-c4ccccc4)sc3C(=O)O)CCN(C(=O)Cn3cnc4ccccc43)C2)CC1` (stereo not drawn) [Example 152, 3-[1-(2-Benzoimidazol-1-yl-acetyl)-5-(4-methyl-cyclohexyl)-1,2,3,6-tetrahydro-pyridin-4-yl]-5-phenyl-thiophene-2-carboxylic acid]: less than 3 µM; for `CC1CCC(C2=C(c3cc(-c4ccccc4)sc3C(=O)O)CCN(C(=O)Cc3nc4ccccn4n3)C2)CC1` (stereo not drawn) [Example 153, 3-[5-(4-Methyl-cyclohexyl)-1-(2-[1,2,4]triazolo[1,5-a]pyridin-2-yl-acetyl)-1,2,3,6-tetrahydro-pyridin-4-yl]-5-phenyl-thiophene-2-carboxylic acid]: 3 to 10 µM; for `CC1CCC(C2=C(c3cc(-c4ccccc4)sc3C(=O)O)CCN(C(=O)c3ccc(C(F)(F)F)nc3)C2)CC1` (stereo not drawn) [Example 154, 3-[5-(4-Methyl-cyclohexyl)-1-(6-trifluoromethyl-pyridine-3-carbonyl)-1,2,3,6-tetrahydro-pyridin-4-yl]-5-phenyl-thiophene-2-carboxylic acid]: less than 3 µM.
Take `CC1CCC(C2=C(c3cc(-c4ccccc4)sc3C(=O)O)CCN(C(=O)c3nccnc3N)C2)CC1` (stereo not drawn) [Example 155, 3-[1-(3-Amino-pyrazine-2-carbonyl)-5-(4-methyl-cyclohexyl)-1,2,3,6-tetrahydro-pyridin-4-yl]-5-phenyl-thiophene-2-carboxylic acid]: the IC50 is more than 10 µM.
The same measure for `CC1CCC(C2=C(c3cc(-c4ccccc4)sc3C(=O)O)CCN(C(=O)c3cncn3C)C2)CC1` (stereo not drawn) [Example 156, 3-[5-(4-Methyl-cyclohexyl)-1-(3-methyl-3H-imidazole-4-carbonyl)-1,2,3,6-tetrahydro-pyridin-4-yl]-5-phenyl-thiophene-2-carboxylic acid]: more than 10 µM; for `CC1CCC(C2=C(c3cc(-c4ccccc4)sc3C(=O)O)CCN(Cc3cncnc3)C2)CC1` (stereo not drawn) [Example 157, 3-[5-(4-Methyl-cyclohexyl)-1-pyrimidin-5-ylmethyl-1,2,3,6-tetrahydro-pyridin-4-yl]-5-phenyl-thiophene-2-carboxylic acid]: more than 10 µM; for `CC1CCC(C2=C(c3cc(-c4ccc(/C=C/c5cscn5)cc4)sc3C(=O)O)CCN(C)C2)CC1` (stereo not drawn) [Example 158, 3-[1-Methyl-5-(4-methyl-cyclohexyl)-1,2,3,6-tetrahydro-pyridin-4-yl]-5-[4-(2-thiazol-4-yl-vinyl)-phenyl]-thiophene-2-carboxylic acid]: more than 10 µM.
`CC1CCC(C2=C(c3cc(-c4ccc(NC(=O)c5cscn5)cc4)sc3C(=O)O)CCNC2)CC1` (stereo not drawn) [Example 159, 3-[5-(4-Methyl-cyclohexyl)-1,2,3,6-tetrahydro-pyridin-4-yl]-5-{4-[(thiazole-4-carbonyl)-amino]-phenyl}-thiophene-2-carboxylic acid] had an IC50 of less than 3 µM.
`CC1CCC(C2=C(c3cc(-c4cc(F)c(NC(=O)c5cscn5)cc4F)sc3C(=O)O)CCN(C)C2)CC1` (stereo not drawn) [Example 160, 5-{2,5-Difluoro-4-[(thiazole-4-carbonyl)-amino]-phenyl}-3-[1-methyl-5-(4-methyl-cyclohexyl)-1,2,3,6-tetrahydro-pyridin-4-yl]-thiophene-2-carboxylic acid] came in with an IC50 of less than 3 µM.
As to `Cc1cc(C)n2nc(-c3ccc(-c4cc(C5=C(C6CCC(C)CC6)CN(C)CC5)c(C(=O)O)s4)cc3)cc2n1` (stereo not drawn) [Example 161, 5-[4-(5,7-Dimethyl-pyrazolo[1,5-a]pyrimidin-2-yl)-phenyl]-3-[1-methyl-5-(4-methyl-cyclohexyl)-1,2,3,6-tetrahydro-pyridin-4-yl]-thiophene-2-carboxylic acid], the IC50 was in the range of 3 to 10 µM.
The same measure for `Cc1ccnc2cc(-c3ccc(-c4cc(C5=C(C6CCC(C)CC6)CN(C)CC5)c(C(=O)O)s4)cc3)nn12` (stereo not drawn) [Example 162, 3-[1-Methyl-5-(4-methyl-cyclohexyl)-1,2,3,6-tetrahydro-pyridin-4-yl]-5-[4-(7-methyl-pyrazolo[1,5-a]pyrimidin-2-yl)-phenyl]-thiophene-2-carboxylic acid]: less than 3 µM; for `Cc1cnc2cc(-c3ccc(-c4cc(C5=C(C6CCC(C)CC6)CN(C)CC5)c(C(=O)O)s4)cc3)nn2c1` (stereo not drawn) [Example 163, 3-[1-Methyl-5-(4-methyl-cyclohexyl)-1,2,3,6-tetrahydro-pyridin-4-yl]-5-[4-(6-methyl-pyrazolo[1,5-a]pyrimidin-2-yl)-phenyl]-thiophene-2-carboxylic acid]: 3 to 10 µM; for `CC1CCC(C2=C(c3cc(-c4ccc(-c5cn6ncccc6n5)cc4)sc3C(=O)O)CCN(C)C2)CC1` (stereo not drawn) [Example 164, 5-(4-Imidazo[1,2-b]pyridazin-2-yl-phenyl)-3-[1-methyl-5-(4-methyl-cyclohexyl)-1,2,3,6-tetrahydro-pyridin-4-yl]-thiophene-2-carboxylic acid]: 3 to 10 µM.
`CC1CCC(C2=C(c3cc(-c4ccc(-n5cc6ncccc6n5)cc4)sc3C(=O)O)CCN(C)C2)CC1` (stereo not drawn) [Example 165, 3-[1-Methyl-5-(4-methyl-cyclohexyl)-1,2,3,6-tetrahydro-pyridin-4-yl]-5-(4-pyrazolo[4,3-b]pyridin-2-yl-phenyl)-thiophene-2-carboxylic acid] returned an IC50 of less than 3 µM.
Consider `CC1CCC(C2=C(c3cc(-c4cc(F)c(NC(=O)c5cscn5)c(F)c4)sc3C(=O)O)CCN(C)C2)CC1` (stereo not drawn) [Example 166, 5-{3,5-Difluoro-4-[(thiazole-4-carbonyl)-amino]-phenyl}-3-[1-methyl-5-(4-methyl-cyclohexyl)-1,2,3,6-tetrahydro-pyridin-4-yl]-thiophene-2-carboxylic acid], for which the IC50 is less than 3 µM.
As to `CC1CCC(C2=C(c3cc(-c4ccc(NC(=O)c5cscn5)cc4)sc3C(=O)O)CN(C)CC2)CC1` (stereo not drawn) [Example 167, 3-[1-Methyl-4-(4-methyl-cyclohexyl)-1,2,5,6-tetrahydro-pyridin-3-yl]-5-{4-[(thiazole-4-carbonyl)-amino]-phenyl}-thiophene-2-carboxylic acid], the IC50 was less than 3 µM.
As to `CC1CCC(C2=C(c3cc(C#CC(C)(C)C)sc3C(=O)O)CCN(CCO)C2)CC1` (stereo not drawn) [Example 168, 5-(3,3-Dimethyl-but-1-ynyl)-3-[1-(2-hydroxy-ethyl)-5-(4-methyl-cyclohexyl)-1,2,3,6-tetrahydro-pyridin-4-yl]-thiophene-2-carboxylic acid], the IC50 is less than 3 µM.
In the case of `CC1CCC(C2=C(c3cc(-c4ccc(-c5cc6ncccn6n5)cc4)sc3C(=O)O)CN(C)CC2)CC1` (stereo not drawn) [Example 169, 3-[1-Methyl-4-(4-methyl-cyclohexyl)-1,2,5,6-tetrahydro-pyridin-3-yl]-5-(4-pyrazolo[1,5-a]pyrimidin-2-yl-phenyl)-thiophene-2-carboxylic acid] it was less than 3 µM; in that of `CC1CCC(C2=C(c3cc(C#CC(C)(C)C)sc3C(=O)O)CN(C(=O)CO)CC2)CC1` (stereo not drawn) [Example 170, 5-(3,3-Dimethyl-but-1-ynyl)-3-[1-(2-hydroxy-acetyl)-4-(4-methyl-cyclohexyl)-1,2,5,6-tetrahydro-pyridin-3-yl]-thiophene-2-carboxylic acid], 3 to 10 µM; in that of `CC1CCC(C2=C(c3cc(I)sc3C(=O)O)CNCC2)CC1` (stereo not drawn) [Example 171, 5-Iodo-3-[4-(4-methyl-cyclohexyl)-1,2,5,6-tetrahydro-pyridin-3-yl]-thiophene-2-carboxylic acid], more than 10 µM.
In turn, `CC1CCC(C2=C(c3cc(C#CC4(C)CC4)sc3C(=O)O)CCN(C)C2)CC1` (stereo not drawn) [Example 172, 5-(1-Methyl-cyclopropylethynyl)-3-[1-methyl-5-(4-methyl-cyclohexyl)-1,2,3,6-tetrahydro-pyridin-4-yl]-thiophene-2-carboxylic acid] came in with a concentration for half-maximal inhibition (IC50) of less than 3 µM.
The same measure for `CC1CCC(C2=C(c3cc(C#CC4(c5ccccc5)CC4)sc3C(=O)O)CCN(C)C2)CC1` (stereo not drawn) [Example 173, 3-[1-Methyl-5-(4-methyl-cyclohexyl)-1,2,3,6-tetrahydro-pyridin-4-yl]-5-(1-phenyl-cyclopropylethynyl)-thiophene-2-carboxylic acid]: more than 10 µM.
Turning to `CC1CCC(C2=C(c3cc(C#CC4(Cc5ccccc5)CC4)sc3C(=O)O)CCN(C)C2)CC1` (stereo not drawn) [Example 174, 5-(1-Benzyl-cyclopropylethynyl)-3-[1-methyl-5-(4-methyl-cyclohexyl)-1,2,3,6-tetrahydro-pyridin-4-yl]-thiophene-2-carboxylic acid], the IC50 was more than 10 µM.
